{
  "source": "patent US20200397795A1",
  "about": "“PROPHYLACTIC TREATMENT OF VENOUS THROMBOEMBOLISM” (JANSSEN PHARMACEUTICALS, INC., priority 2019, published 2020)",
  "key": {"[1]": {"test_system": "events prevented vs bleeding events caused", "assay_type": "in vivo, human", "text": "The same time period was utilized, preventing double counting for fatal bleeds, with all bleeds through Day 35 included (even if off treatment), and bleeding deaths were not counted as CV deaths. Using the primary endpoint, there would be 131 fewer events in the rivaroxaban group with a number-to-treat to benefit (NNT) of 77 to prevent one event, but this was counterbalanced by causing 51 more major bleeds. The benefit risk profile was improved in the subpopulation, with 182 events prevented and only 18 major bleeds caused, with NNT and number-to-treat to harm (NNH) of 55 and 560, respectively. […] More ischemic events were prevented than hemorrhagic events caused in the subpopulation in all five pairs of clinically meaningful endpoints which included asymptomatic and symptomatic VTE and VTE-related death, major bleeding, and fatal and irreversible thrombotic and bleed events. For 35 days of treatment, the number need to treat to prevent 1 event ranged from 55 to 481 for the 5 pairs, while the number needed to harm ranged from 455-1,067."}, "[2]": {"assay": "MAGELLAN (Study 1): pharmacokinetics", "assay_type": "in vivo, human", "conditions": "for AUC: plasma", "description": "A subset of approximately 125 subjects was to be stratified into 5 groups (of 25 subjects) based on the major diagnoses. The following pharmacokinetic (PK) parameters were calculated on Day 1 and Day 10: area under the plasma concentration curve (AUC), area under the curve normalized to body weight (AUCnorm), area under the curve for the expected dosing interval obtained after single dose administration (AUCτ), AUCτ, norm, maximum serum concentration (Cmax), maximum and normalized serum concentration (Cmax, norm), time to reach maximum concentration in plasma (tmax), half-life (t1/2), and total body clearance of drug from plasma calculated after oral administration (CL/F)."}, "[3]": {"test_system": "bleeding events in high-risk, medically ill subjects", "conditions": "human, in vivo", "excerpt": "(§1) The safety objectives were to compare rivaroxaban with placebo in the following bleeding outcomes in high-risk, medically ill subjects: • Major bleeding using validated International Society on Thrombosis and Haemostasis (ISTH) bleeding criteria. • Non-major clinically relevant (NMCR) bleeding. • Other bleeding.\n(§2) Safety assessment was based on bleeding events classified by validated ISTH criteria as major bleeding (principal safety outcome), NMCR bleeding, or Other bleeding. […] The safety outcome of NMCR bleeding was defined as overt bleeding not meeting ISTH criteria for major bleeding, but associated with medical intervention, unscheduled contact (visit or telephone call) with a physician, (temporary) cessation of study treatment, or associated with discomfort for the subject such as pain or impairment of activities of daily life. […] Overall safety was also assessed.\n(§3) The principal safety outcome was major bleeding based on validated ISTH criteria. Treatments were compared using the same statistical model (i.e., Cox proportional hazards model) as that for the primary efficacy outcome. The same analyses were used for NMCR bleeding. Safety analyses were based on the safety analysis set and on-treatment analysis phase. Bleeding events were analyzed based on time from randomization to the first occurrence."}, "[4]": {"test_system": "events prevented vs bleeding events caused", "assay": "MARINER benefit-risk analysis (excess number of events per 10,000 subjects)", "assay_type": "in vivo, human", "description": "The benefit-risk of rivaroxaban versus placebo was evaluated based on the excess number of events between treatments for events intended to be prevented (benefits) and events that were caused (risks).\nAlthough the primary efficacy endpoint was not statistically different between rivaroxaban and placebo, the benefit-risk analyses were conducted to further assess the totality of the data. Based on the ITT analysis set and Up-to-Day 45 analysis phase, for 10,000 subjects treated with rivaroxaban up to 45 days, on average, rivaroxaban would prevent 27 events of the composite of symptomatic VTE and VTE-related death, while causing 12 more major bleeding events than with placebo. […] Therefore, focusing instead on major thrombotic events that were fatal or caused potentially irreversible harm, on average, rivaroxaban would prevent 55 events of the composite of nonfatal PE, MI, non-hemorrhagic stroke, and non-hemorrhagic ACM, while causing 2 more events of the composite of critical site bleeding and fatal bleeding than with placebo."}, "[5]": {"test_system": "bleeding events in high-risk, medically ill subjects", "assay": "MARINER (Study 2): safety, ISTH bleeding and adverse events", "excerpt": "as §1, §2, §3"}, "[6]": {"conditions": "subpopulation, primary endpoint"}, "[7]": {"conditions": "10 mg dose stratum, for 10,000 subjects"}, "[8]": {"conditions": "for 10,000 subjects treated up to 45 days"}},
  "note": "Read-outs that look alike come from different tables or passages of the source.",
  "data": [
    {"smiles": "O=C(NC[C@H]1CN(c2ccc(N3CCOCC3=O)cc2)C(=O)O1)c1ccc(Cl)s1", "note": "[Rivaroxaban, 5-chloro-N-({(5S)-2-oxo-3-[4-(3-oxo-4-morpholinyl)phenyl]-1,3,oxazolidin-5-yl}methyl)-2-thiophenecarboxamide]", "values": [
      {"measurement": "Number-to-treat to benefit (NNT) to prevent one event", "setting": "[1]; entire MAGELLAN population, primary endpoint", "result": 77},
      {"measurement": "Fewer primary endpoint events in the rivaroxaban group", "setting": "[1]; entire MAGELLAN population, through Day 35", "result": 131, "unit": "events"},
      {"measurement": "Major bleeds caused", "setting": "[1]; human, in vivo, 35 day", "result": 18},
      {"measurement": "More major bleeds caused", "setting": "[1]; human, in vivo, 35 day", "result": 51},
      {"measurement": "Number needed to harm, range over 5 benefit-risk pairs", "setting": "[1]; human, in vivo, 35 day", "result": "455-1,067"},
      {"measurement": "Number-to-treat to harm (NNH)", "setting": "[1]; human, in vivo, 35 day", "result": 560},
      {"measurement": "Events prevented", "setting": "[1]; [6]", "result": 182, "unit": "events"},
      {"measurement": "NNT", "setting": "[1]; [6]", "result": 55},
      {"measurement": "Cmax", "setting": "[2]; Day 10, subjects with acute infectious disease", "result": 178.9, "unit": "ng/mL"},
      {"measurement": "AUC", "setting": "[2]; human, oral, 10 mg, Day 1, overall, 10 mg", "result": 1640, "unit": "ng·h/mL"},
      {"measurement": "AUC", "setting": "[2]; human, oral, 10 mg, Day 10, overall, 10 mg", "result": 1360, "unit": "ng·h/mL"},
      {"measurement": "AUC", "setting": "[2]; human, oral, 10 mg, Day 10, subjects with CHF NYHA IV", "result": 1440, "unit": "ng·h/mL"},
      {"measurement": "AUC", "setting": "[2]; human, oral, 10 mg, Day 10, subjects with acute infectious disease", "result": 1190, "unit": "ng·h/mL"},
      {"measurement": "Cmax", "setting": "[2]; human, serum, oral, 10 mg, Day 1, overall, 10 mg, read-out: Cmax", "result": 176, "unit": "ng/mL"},
      {"measurement": "Cmax", "setting": "[2]; human, serum, oral, 10 mg, Day 10, overall, 10 mg, read-out: Cmax", "result": 189, "unit": "ng/mL"},
      {"measurement": "Cmax", "setting": "[2]; human, serum, oral, 10 mg, Day 10, subjects with CHF NYHA IV, read-out: Cmax", "result": 192, "unit": "ng/mL"},
      {"measurement": "AEs with onset >2 days from stop of study drug, n (%)", "setting": "[3]", "result": "419 (7.0) %"},
      {"measurement": "Any AEs, n (%)", "setting": "[3]; 45 days", "result": "1438 (24.0) %"},
      {"measurement": "Discontinued study drug permanently because of NMCR bleeding", "setting": "[3]; 45 days", "result": 0.7, "unit": "%"},
      {"measurement": "Discontinued study drug permanently due to bleeding", "setting": "[3]; 45 days", "result": 1.1, "unit": "%"},
      {"measurement": "Major and NMCR bleeding, event rate", "setting": "[3]; 45 days", "result": "1.71 100 pt-45 dy"},
      {"measurement": "Major bleeding at a critical site, incidence", "setting": "[3]; 45 days", "result": 0.05, "unit": "%"},
      {"measurement": "Major bleeding, event rate", "setting": "[3]; 45 days", "result": "0.28 100 pt-45 dy"},
      {"measurement": "NMCR bleeding, event rate", "setting": "[3]; 45 days", "result": "1.43 100 pt-45 dy"},
      {"measurement": "Other bleeding, event rate", "setting": "[3]; 45 days", "result": "0.91 100 pt-45 dy"},
      {"measurement": "Post-baseline AEs, n (%)", "setting": "[3]; 45 days", "result": "1430 (23.9) %"},
      {"measurement": "Post-baseline SAEs, n (%)", "setting": "[3]; 45 days", "result": "465 (7.8) %"},
      {"measurement": "SAEs with onset >2 days from stop of study drug, n (%)", "setting": "[3]; 45 days", "result": "169 (2.8) %"},
      {"measurement": "SAEs, n (%)", "setting": "[3]; 45 days", "result": "460 (7.8) %"},
      {"measurement": "TEAE COPD", "setting": "[3]; 45 days", "result": 1.3, "unit": "%"},
      {"measurement": "TEAE diarrhoea", "setting": "[3]; 45 days", "result": 1.1, "unit": "%"},
      {"measurement": "TEAE headache", "setting": "[3]; 45 days", "result": 1.6, "unit": "%"},
      {"measurement": "TEAEs, n (%)", "setting": "[3]; 45 days", "result": "1198 (20.0) %"},
      {"measurement": "TESAEs, n (%)", "setting": "[3]; 45 days", "result": "337 (5.6) %"},
      {"measurement": "Additional critical site and fatal bleeding vs placebo", "setting": "[4]; 10 mg dose stratum", "result": "no additional"},
      {"measurement": "Events of composite of nonfatal PE, MI, non-hemorrhagic stroke, non-hemorrhagic ACM prevented vs placebo", "setting": "[4]; [7]", "result": 63, "unit": "events"},
      {"measurement": "Events of composite of symptomatic VTE and VTE-related death prevented vs placebo", "setting": "[4]; [7]", "result": 33, "unit": "events"},
      {"measurement": "Events of composite of nonfatal PE, MI, non-hemorrhagic stroke, non-hemorrhagic ACM prevented vs placebo", "setting": "[4]; [8]", "result": 55, "unit": "events"},
      {"measurement": "More events of composite of critical site bleeding and fatal bleeding than with placebo", "setting": "[4]; [8]", "result": 2, "unit": "events"},
      {"measurement": "Events of composite of symptomatic VTE and VTE-related death prevented vs placebo", "setting": "[4]; for 10,000 subjects treated up to 45 days, ITT", "result": 27, "unit": "events"},
      {"measurement": "More major bleeding events caused than with placebo", "setting": "[4]; human, in vivo", "result": 12, "unit": "events"},
      {"measurement": "Fatal bleeding, incidence", "setting": "[5]; 10 mg dose stratum", "result": 0.04, "unit": "%"},
      {"measurement": "Fatal bleeding, incidence", "setting": "[5]; on-treatment, safety analysis set", "result": 0.03, "unit": "%"},
      {"measurement": "AEs with outcome of death, n (%)", "setting": "[5]; safety analysis set", "result": "95 (1.6) %"}
    ]}
  ]
}
